From PubChem BioAssay AID330 (DTP/NCI, 2004) come the findings set out here.

Where “and” joins values, the source holds several entries; their conditions need not be identical. Equal values may be shown once. Inconclusive results and toxic doses are left out.

The subject of the assay is P388 leukemia ip, CD2F1 mice, survival T/C. Nature of the assay: NCI In Vivo Anticancer Drug Screen. Data for tumor model P388 Leukemia (intraperitoneal) in CD2F1 (CDF1) mice. Conditions: endpoint: median survival time, higher = longer survival. The method, boiled down:
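Mice carrying the transplanted tumor received test compound or vehicle. Survival was recorded in each group, and the value is the treated-group measurement divided by that of the vehicle-treated control group.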

Setting [1] is: dose: 50.0 mg/kg/injection, schedule: Q01DX009 (ip), vehicle: Klucel (hydroxypropylcellulose) (HPC).
Setting [2] is: dose: 100.0 mg/kg/injection, schedule: Q01DX009 (ip), vehicle: Klucel (hydroxypropylcellulose) (HPC).
Where [3] appears, read: dose: 200.0 mg/kg/injection, schedule: Q01DX009 (ip), vehicle: Klucel (hydroxypropylcellulose) (HPC).
Where [4] appears, read: dose: 100.0 mg/kg/injection, schedule: Q04DX003 (ip), vehicle: saline with Tween-80.
The mark [5] stands for this setting: dose: 400.0 mg/kg/injection, schedule: Q04DX003 (ip), vehicle: saline with Tween-80.
The mark [6] stands for this setting: dose: 60.0 mg/kg/injection, schedule: Q01DX005 (ip), vehicle: Klucel (hydroxypropylcellulose) (HPC).
Setting [7] is: dose: 120.0 mg/kg/injection, schedule: Q01DX005 (ip), vehicle: Klucel (hydroxypropylcellulose) (HPC).
The mark [8] stands for this setting: dose: 50.0 mg/kg/injection, schedule: Q01DX009 (ip), vehicle: saline.
[9] abbreviates: dose: 100.0 mg/kg/injection, schedule: Q01DX009 (ip), vehicle: saline.
Setting [10] is: dose: 200.0 mg/kg/injection, schedule: Q01DX009 (ip), vehicle: saline.
Where [11] appears, read: dose: 25.0 mg/kg/injection, schedule: Q01DX009 (ip), vehicle: saline with Tween-80.
Where [12] appears, read: dose: 50.0 mg/kg/injection, schedule: Q01DX009 (ip), vehicle: saline with Tween-80.
The mark [13] stands for this setting: dose: 100.0 mg/kg/injection, schedule: Q01DX009 (ip), vehicle: saline with Tween-80.
Where [14] appears, read: dose: 200.0 mg/kg/injection, schedule: Q01DX009 (ip), vehicle: saline with Tween-80.
The mark [15] stands for this setting: dose: 25.0 mg/kg/injection, schedule: Q01DX009 (ip), vehicle: Klucel (hydroxypropylcellulose) (HPC).
[16] abbreviates: dose: 240.0 mg/kg/injection, schedule: Q01DX005 (ip), vehicle: Klucel (hydroxypropylcellulose) (HPC).

Consider `CC1CC(=O)Nc2ncnc(N)c21` (configuration not stated), for which the T/C was 98 % of control (dose: 60.0 mg/kg/injection, schedule: Q01DX005 (ip), vehicle: saline with Tween-80); 106 % of control (dose: 120.0 mg/kg/injection, schedule: Q01DX005 (ip), vehicle: saline with Tween-80); 108 % of control (dose: 240.0 mg/kg/injection, schedule: Q01DX005 (ip), vehicle: saline with Tween-80).

Consider `C#Cc1cccc(N=Cc2cc([N+](=O)[O-])cc(Br)c2O)c1`, for which the T/C (dose: 50.0 mg/kg/injection, schedule: Q01DX005 (ip), vehicle: saline with Tween-80) was 100 % of control; the T/C (dose: 100.0 mg/kg/injection, schedule: Q01DX005 (ip), vehicle: saline with Tween-80) was 105 % of control; the T/C (dose: 200.0 mg/kg/injection, schedule: Q01DX005 (ip), vehicle: saline with Tween-80) is 105 % of control.

Consider `CC(Oc1ccc(Oc2ccc(Cl)cc2)cc1)C(=O)O` (configuration not stated), for which the T/C reads like this: under setting [1], 102 % of control; under setting [2], 90 % of control; under setting [3], 89 % of control.

Regarding `CC(C)(C)OC(=O)C(N)C(F)C(=O)OC(C)(C)C` (configuration not stated), the T/C is, setting by setting: (dose: 25.0 mg/kg/injection, schedule: Q04DX003 (ip), vehicle: saline with Tween-80) 96 % of control; (dose: 50.0 mg/kg/injection, schedule: Q04DX003 (ip), vehicle: saline with Tween-80) 101 % of control; under setting [4], 99 % of control and 104 % of control; under setting [5], 97 % of control.

`COc1ccc(S(=O)(=O)F)cc1NC(C)=O`: the T/C was 105 % of control under setting [6] and 101 % of control under setting [7].

Regarding `O=C(O)CCC(=O)OCCNCCOC(=O)CCC(=O)O`, the T/C under setting [8] was 92 % of control, the T/C under setting [9] is 96 % of control and the T/C under setting [10] is 99 % of control.

For the molecule `COc1ccc(C(O)(CS(C)=O)c2cccs2)cc1` (configuration not stated), the T/C (dose: 12.5 mg/kg/injection, schedule: Q01DX009 (ip), vehicle: saline with Tween-80) is 94 % of control and 97 % of control; the T/C under setting [11] was 100 % of control and 102 % of control; the T/C under setting [12] is 110 % of control and 96 % of control; the T/C under setting [13] is 91 % of control and 96 % of control.

On to `CC(CC(=O)O)C(N)C(=O)O` (configuration not stated), for which the T/C runs as follows: (dose: 50.0 mg/kg/injection, schedule: Q01DX005 (ip), vehicle: saline) 96 % of control; under setting [8], 92 % of control; (dose: 100.0 mg/kg/injection, schedule: Q01DX005 (ip), vehicle: saline) 95 % of control; under setting [9], 91 % of control; (dose: 200.0 mg/kg/injection, schedule: Q01DX005 (ip), vehicle: saline) 101 % of control; under setting [10], 92 % of control.

For `CCOc1cc2c(cc1OC)c[n+](C)c1c3cc(OC)c(OC)cc3ccc21`, the T/C (dose: 10.0 mg/kg/injection, schedule: Q01DX009 (ip), vehicle: water) is 122 % of control.

Turning to `c1cnc2ncncc2n1`, the T/C is, setting by setting: under setting [12], 104 % of control and 111 % of control; under setting [13], 120 % of control; under setting [14], 150 % of control.

Take `Cc1ccc(NC(=O)Oc2cc(C)c(Br)c(C)c2)cc1Cl`: the T/C by setting is: under setting [8], 107 % of control; under setting [9], 95 % of control; under setting [10], 91 % of control.

Take `CCCCCCCCC1SC1CCCCCCCCOC(=O)CCCCCCCC1SC1CCCCCCCC` (configuration not stated): the T/C is 95 % of control (dose: 100.0 mg/kg/injection, schedule: Q01DX001 (ip), vehicle: saline with Tween-80); 95 % of control (dose: 200.0 mg/kg/injection, schedule: Q01DX001 (ip), vehicle: saline with Tween-80); 95 % of control (dose: 400.0 mg/kg/injection, schedule: Q01DX001 (ip), vehicle: saline with Tween-80).

Turning to `CN(CCN(C)C(=S)SCc1ccccc1)C(=S)SCc1ccccc1`, the T/C was 100 % of control (dose: 6.25 mg/kg/injection, schedule: Q01DX009 (ip), vehicle: Klucel (hydroxypropylcellulose) (HPC)); 116 % of control (dose: 12.5 mg/kg/injection, schedule: Q01DX009 (ip), vehicle: Klucel (hydroxypropylcellulose) (HPC)); 105 % of control under setting [15].

Consider `CC1(C)CC(Nc2ccccc2)=CC(Nc2ccccc2)=N1`, for which the T/C is 105 % of control (dose: 50.0 mg/kg/injection, schedule: Q01DX005 (ip), vehicle: Klucel (hydroxypropylcellulose) (HPC)); 98 % of control (dose: 100.0 mg/kg/injection, schedule: Q01DX005 (ip), vehicle: Klucel (hydroxypropylcellulose) (HPC)); 105 % of control (dose: 200.0 mg/kg/injection, schedule: Q01DX005 (ip), vehicle: Klucel (hydroxypropylcellulose) (HPC)).

Take `CC(C)(C)N=C(CCN1CCCCC1)Nc1cccc(Cl)c1`: the T/C runs as follows: under setting [12], 110 % of control; under setting [13], 106 % of control; under setting [14], 98 % of control.

For the molecule `CC(C)=CCc1c2c(c3occ(-c4ccc(O)cc4)c(=O)c3c1O)C=CC(C)(C)O2`, the T/C is 90 % of control under setting [15], 90 % of control under setting [1], 88 % of control under setting [2] and 88 % of control under setting [3].

`CC1=C(C)/C(=C/c2ccccn2)NC1=O`: the T/C reads like this: under setting [6], 98 % of control; under setting [7], 105 % of control; under setting [16], 98 % of control.

Take `CCC1=C[C@H]2CN(CCc3c([nH]c4ccccc34)[C@@](C(=O)OC)(c3cc4c(cc3OC)N(C=O)[C@H]3[C@@](O)(C(=O)OC)[C@H](OC(C)=O)[C@]5(CC)C=CCN6CC[C@]43[C@@H]65)C2)C1`: the T/C was 99 % of control (dose: 0.13 mg/kg/injection, schedule: Q01DX001 (ip), vehicle: water); 100 % of control (dose: 0.25 mg/kg/injection, schedule: Q01DX001 (ip), vehicle: water); 116 % of control (dose: 0.5 mg/kg/injection, schedule: Q01DX001 (ip), vehicle: water).

`CC(=O)OC1COC(NC(=O)N(CCCl)N=O)C(OC(C)=O)C1OC(C)=O` (configuration not stated): the T/C runs as follows: (dose: 1.5 mg/kg/injection, schedule: Q01DX009 (ip), vehicle: saline with Tween-80) 111 % of control; (dose: 3.0 mg/kg/injection, schedule: Q01DX009 (ip), vehicle: saline with Tween-80) 121 % of control; (dose: 6.0 mg/kg/injection, schedule: Q01DX009 (ip), vehicle: saline with Tween-80) 151 % of control; (dose: 12.0 mg/kg/injection, schedule: Q01DX009 (ip), vehicle: saline with Tween-80) 161 % of control; (dose: 24.0 mg/kg/injection, schedule: Q01DX009 (ip), vehicle: saline with Tween-80) 272 % of control; (dose: 48.0 mg/kg/injection, schedule: Q01DX009 (ip), vehicle: saline with Tween-80) 114 % of control.

In the case of `C/C(=N\NC(=O)CCl)C(C)(C)C`, the T/C is 111 % of control (dose: 25.0 mg/kg/injection, schedule: Q01DX009 (ip), vehicle: saline); 109 % of control under setting [8]; 103 % of control under setting [9].

On to `COc1cc2c(cc1O)C(CSC)Cc1cc(OC)c(OC)cc1N(C)CCC2` (configuration not stated), for which the T/C by setting is: under setting [4], 93 % of control; (dose: 200.0 mg/kg/injection, schedule: Q04DX003 (ip), vehicle: saline with Tween-80) 87 % of control; under setting [5], 100 % of control.

For `c1ccc2c(SCCCCCCCCCCCCSc3c4ccccc4nc4ccccc34)c3ccccc3nc2c1`, the T/C is 104 % of control under setting [6], 98 % of control under setting [7] and 90 % of control under setting [16].

As to `Cc1ccc(NC(=S)SCc2ccccc2)cc1Cl`, the T/C was 98 % of control (dose: 100.0 mg/kg/injection, schedule: Q04DX002 (ip), vehicle: saline); 100 % of control (dose: 200.0 mg/kg/injection, schedule: Q04DX002 (ip), vehicle: saline); 106 % of control (dose: 400.0 mg/kg/injection, schedule: Q04DX002 (ip), vehicle: saline).

Regarding `CCOC(=O)C(Br)c1cccc(OC)c1` (configuration not stated), the T/C runs as follows: under setting [13], 91 % of control; under setting [14], 95 % of control; (dose: 400.0 mg/kg/injection, schedule: Q01DX009 (ip), vehicle: saline with Tween-80) 95 % of control.

For the molecule `CCCN(CCC)C(=O)c1ccc([N+](=O)[O-])cc1`, the T/C was 106 % of control under setting [11]; 113 % of control under setting [12]; 100 % of control and 104 % of control under setting [13]; 106 % of control under setting [14].
